Data published in patent US9687480B2, “Chiral 1-(4-methylphenylmethyl)-5-oxo-{N-[(3-t-butoxycarbonyl-aminomethyl)]-piperidin-1-yl)-pyrrolidine as inhibitors of collagen induced platelet activation and adhesion” (Council of Scientific & Industrial Research, priority 2011, dated 2017).

Legend:
[1] = tested on: rats; experiment: FeCl3 induced carotid artery thrombosis in rats; format: in vivo; settings: for time to occlude the carotid artery (TTO): compound 1 at the same dose as compound 6, aspirin at a very high dose
Procedure: Male SD rats were anesthetized by urethane (1.25 g/kg, i.p.). The carotid artery was carefully dissected and a pulsed Doppler Probe (DBF-120A-CPx, CBI-8000, Crystal Biotech, USA) was placed around it to record the blood flow velocity and patency of the blood vessels. The carotid artery thrombosis was induced by FeCl3 as follows: a square (1×1 mm) of Whatman Chromatography paper was immersed in 20% FeCl3 solution for 5 min and placed on the carotid artery as described earlier (Kurz K D, Main B W, Sandusky G E. Rat model of arterial thrombosis induced by ferric chloride. Thromb Res 1990; 60(4):269-80). Thrombosis was monitored as the reduction in carotid artery blood flow. The time at which the blood-flow velocity was decreased to zero was recorded as the total of occlusion (TTO) of the carotid artery. […] (Ferric Chloride induced thrombosis (FIG. 7))

[2] = tested on: mice platelet rich plasma; experiment: Platelet aggregation (mice, ex vivo) induced by collagen; format: in vivo; settings: oral route
Procedure: (§1) The reaction was allowed to proceed for at least 5 min, and the extent of aggregation was expressed in light-transmission units (Ivandic B T, Schlick P, Starltz P, Kurz K, Katas H A, Giannitsis E. Determination of clopidogrel resistance by whole blood platelet aggregometry and inhibitors of the P2Y12 receptor. Clinical Chemistry 2006: 52:383-88).

[3] = tested on: mouse platelets; experiment: Platelet adhesion over collagen matrix (mice, ex vivo); format: in vivo; settings: oral route, compound 6 10, 30, 100 μM/kg, aspirin 100 μM/kg
Text: FIG. 4b: Adhesion of mouse platelets on collagen matrix as observed under fluorescence microscope 40× (ex vivo method). Different pictures show the different treatment performed. Washed murine platelets (2×10^6/ml) were obtained from animals pretreated with the compound (compound 6) (different doses) and seeded on BSA or Collagen (fibrillar) coated cover slips (A, B). Platelets from untreated animals were allowed to adhere on uncoated and BSA coated cover slip respectively to delineate the possibility of non specific binding. C, D. control platelets were adhered on collagen coated cover slip (control). E. F&G. Platelets obtained from animals pre-treated with compound 6 (10 μM/kg, 30 μM/kg & 100 μM/kg) respectively were adhered on collagen coated cover slip. H, I. Platelets from Aspirin (100 μM/kg) & Clopidogrel treated (100 μM/kg) animals resp. (standard Drugs) and adhered on collagen coated cover slip (n=5, 5 animals/group/experiment).

[4] = tested on: human platelets; experiment: Intracellular calcium mobilization in Fura-2 loaded platelets stimulated by collagen; format: cell-based; settings: Fura-2 loaded human platelets, collagen 5 μg/ml
Procedure: Ca^+2 concentration ([Ca^+2]i) were monitored by Fura-2AM fluorescence in the platelets (Fowler C J. Tiger G Calibration of Fura-2 signals introduces errors into measurement of thrombin-stimulated calcium mobilization in human platelets. Clinica Chimica Acta. 1997; 265:247-261). Human PRP was incubated with 5 μM Fura-2 AM (Sigma) for 60 minutes at 37° C. After 2 washes with the wash buffer, the platelets were resuspended at 2×10^6 cells/mL with the Tyrode's-HEPES buffer. After incubating with various concentrations of compound for 5 minutes, the platelets were stimulated with collagen (5 μg/mL)(the concentration of collagen was varied in accordance with cell number). The Fura-2 fluorescence was measured for 5 minutes at an excitation wavelength of 340/380 nm and emission wavelength of 500 nm (Yoshida S., Sudo T., Niimi M., Tao L., Sun B., Kambayashi J., Watanabe H., Luo E., and Matsuoka H. Inhibition of collagen-induced platelet aggregation by anopheline antiplatelet protein, a saliva protein from a malaria vector mosquito. Blood 2007; 111: 2007-201) using a fluorescence spectrophotometer (VARIAN, Cary Eclipse).

[5] = tested on: collagen stimulated platelets; experiment: Immunoblotting: tyrosine phosphorylation of platelet proteins after collagen stimulation; format: cell-based, human; settings: 10-100 μM
Procedure: Platelet rich plasma (2×10^8/ml) was pre-incubated with test compound (10-100 μM) or the isovolumetric solvent control (0.5% DMSO) for 5 minutes, followed by the addition of collagen, to trigger platelet activation. The reaction was stopped by the addition of ice cold stop buffer (5 mM EDTA, 5 mM EGTA) and the suspensions were centrifuged at 800×g for 10 minutes and then immediately resuspended in 300 μl of lysis buffer (50 mM HEPES, 5 mM EDTA, 50 mM NaCl, 1% Triton X-100, 10 μg/ml aprotinin, 1 mM PMSF, 10 μg/ml leupeptin, 10 mM NaF, 1 mM sodium orthovanadate, and 5 mM sodium pyrophosphate) (Ezumi Y. Shindoh K, Tsuji M, and Takayama H Physical and Functional Association of the Src Family Kinases Fyn and Lyn with the Collagen Receptor Glycoprotein VI-Fc Receptorg Chain Complex on Human Platelets. J. Exp. Med. 1998; 188: 287-[…]). Lysates were centrifuged at 12,000×g for 5 minutes, after which the supernatants were dissolved in Laemmeli sample buffer (Laemmeli, 1970). […] Immunoreactive bands were detected by chemiluminescence using the ECL-enhanced chemiluminescence system (Inoue K, Ozaki Y, Satoh K, u Y, Yatomi Y, Shin Y and Morita T Signal Transduction Pathways Mediated by Glycoprotein Ia/IIa in Human Platelets: Comparison with those of Glycoprotein VI. Biochem. I and Biophys. Res. Comm. 1999; 256: 114-120).

[6] = tested on: human platelet rich plasma (Convulxin, GP VI agonist); experiment: Convulxin induced platelet aggregation, human platelet rich plasma (in vitro); format: cell-based; settings: at 500 μM
Procedure: as §1
The percentage of aggregation was calculated by using following formula: Percent Aggregation=A/B×100 Where, A is the number of division traversed by the label on chart in the presence of Inducer & B is the total number of divisions (80). Platelet Aggregation Studies (FIG. 3) a) Platelet Aggregation (Human, In Vitro) (FIG. 3a (i) (ii) (iii))

[7] = tested on: hyperlipidemic hamsters; experiment: Arterio-venous shunt model in hyperlipidemic hamsters; format: in vivo

## Cc1ccc(CN2C(=O)CC[C@H]2C(=O)N2CCCC(CNC(=O)OC(C)(C)C)C2)cc1 (some centres unmarked) [Compound 1, 1-(4-methylphenylmethyl)-5-oxo-{N-[(3-t-butoxycarbonyl-aminomethyl)]-piperidin-1-yl}-pyrrolidine-2-carboxamides]
[1]; rats
  time to occlude the carotid artery (TTO): failed to exhibit any protection

## Cc1ccc(CN2C(=O)CC[C@H]2C(=O)N2CCC[C@@H](CNC(=O)OC(C)(C)C)C2)cc1 [Compound 6]
[2]
  collagen induced platelet aggregation (ex vivo): dose dependent inhibition
[3]
  platelet adhesion (ex vivo) over collagen surface: dose dependent inhibition
[1]; Table 2 summary
  Ferric chloride induced thrombosis in rats: Protective
[1]; rats, 10, 30 & 100 μM/kg
  time to occlusion, dose dependence: dose dependently exhibited prolongation in time to occlusion
[1]; rats
  time to occlude the carotid artery (TTO): significantly prolonged
[4]
  calcium mobilization ([Ca2+]i) during collagen stimulation: concentration dependent inhibition
[5]
  tyrosine phosphorylation of platelet proteins: attenuated the tyrosine phosphorylation
[6]
  inhibition of convulxin induced platelet aggregation: does not significantly inhibit
[7]; Table 2 summary, Even at 10 μM
  Arterio-venous shunt model in hyperlipidemic hamsters: Protective
[7]; hyperlipidemic hamsters, compound 6 at 10 μM/kg
  thrombus weight: significantly reduced the thrombus weight
